The text below walks through data of patent publication US11059795B2, “Androgen receptor modulators and methods for their use” (ESSA Pharma, Inc., priority 2018, dated 2021).

Molecules are shown by their SMILES. A value given as a limit tells only on which side of the number the result lay.

Data set [1] is described as follows: Microsomal stability assay, mouse liver microsomes. The class given is in vitro ADME. The conditions noted are these: pH 7.4; mouse liver microsomes; read-out: Liver microsome T½ (min) Mouse. In short, it runs like this: (§1)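 Compound at 1 μM was incubated at 37° C with 0.5 mg/mL liver microsomes and 1 mM NADPH and/or 1 mM UDPGA (with alamethicin) in 100 mM potassium phosphate pH 7.4, 3 mM MgCl2. Samples were taken at 0, 15, 30 and 60 min and measured by LC/MS/MS. t½ came from compound loss relative to 0 min, and Clint was scaled with 45 mg microsomal protein/g liver.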

Data set [2] is described as follows: Microsomal stability assay, human liver microsomes. The class given is in vitro ADME. The conditions noted are these: pH 7.4, read-out: Liver microsome T½ (min) Human. Put shortly: as §1
A short description of data set [3]: Microsomal stability assay, rat liver microsomes. It counts as in vitro ADME. As to conditions: pH 7.4, read-out: Liver microsome T½ (min) Rat. As to the method: (§2) Microsomal stability assay is a widely used in vitro model to characterize the metabolic conversion by phase I enzymes, such as cytochrome P450 (CYP) enzymes. Since metabolism is known to be highly variable in different species, microsomal stability assay is commonly run in multiple species. Metabolic stability of testing compound can be evaluated using human, rat, mouse, or other animal liver or intestine microsomes to predict intrinsic clearance.
(§3) The assay was carried out in 96-well microtiter plates at 37° C. Reaction mixtures (25 μL) contained a final concentration of 1 μM test compound, 0.5 mg/mL liver microsomes protein, and 1 mM NADPH and/or 1 mM UDPGA (with alamethicin) in 100 mM potassium phosphate, pH 7.4 buffer with 3 mM MgCl2. The incubation was done with N=1, but duplicate incubation at each time point can be prepared if necessary. At each of the time points (for example, 0, 15, 30, and 60 minutes), 150 μL of quench solution (100% acetonitrile with 0.1% formic acid) with internal standard was transferred to each well. Besides the zero minute controls, mixtures containing the same components except the NADPH can also be prepared as the negative control. Verapamil was included as a positive control to verify assay performance. Plates were sealed, vortexed, and centrifuged at 4° C. for 15 minutes at 4000 rpm. The supernatant is transferred to fresh plates for LC/MS/MS analysis.
(§4) Summarized conditions: [Compound]=[…], [LM]=0.5 mg/mL, [NADPH]=1 mM and/or [UDPGA]=1 mM, Buffer=100 mM Potassium Phosphate, pH 7.4 with 3 mM MgCl2, Time=0, 15, 30, and 60 min, and Temperature=37° C.
(§5) All samples were analyzed on LC/MS/MS using an AB Sciex API 4000 instrument, coupled to a Shimadzu LC-20AD LC Pump system. Analytical samples were separated using a Waters Atlantis T3 dC18 reverse phase HPLC column (20 mm×2.1 mm) at a flow rate of 0.5 mL/min. The mobile phase consisted of 0.1% formic acid in water (solvent A) and 0.1% formic acid in 100% acetonitrile (solvent B).
(§6) The extent of metabolism is calculated as the disappearance of the test compound, compared to the 0-min time incubation. Initial rates are calculated for the compound concentration and used to determine half-life (t½) values and subsequently, the intrinsic clearance (Clint). Clint=(0.693)(1/t½ (min))(g of liver/kg of body weight)(mL incubation/mg of microsomal protein)(45 mg of microsomal protein/g of liver weight)

The nature of data set [4]: Microsomal stability assay, dog liver microsomes. The class given is in vitro ADME. The conditions noted are these: pH 7.4, read-out: Liver microsome T½ (min) Dog. As to the method:
as §2, §3, §4, §5, §6

A short description of data set [5]: Microsomal stability assay, monkey liver microsomes. The class given is in vitro ADME. The conditions noted are these: pH 7.4, read-out: Liver microsome T½ (min) Monkey. As to the method: as §2, §3, §4, §5, §6
The nature of data set [6]: Hepatocyte stability assay, human hepatocytes. It counts as in vitro ADME. As to conditions: cryopreserved hepatocytes, read-out: Hepatocytes T½ (min) Human.
Source text: The […] of in vitro intrinsic clearance (Clint) for drug candidates in the early discovery stage is common practice in the pharmaceutical industry. The Clint values of drug candidates can help to confirm whether metabolism is the main clearance pathway when it is compared with the total body clearance in vivo. Hepatocytes are among the routinely used in vitro systems for measuring clearance. Hepatocytes have been reported to retain most of the phase I and phase II metabolic activities, and therefore, it is a useful tool to estimate the intrinsic clearance for potential drug candidates.
Metabolic stability of testing compound were be evaluated using human and mouse hepatocytes and can also be use rat, mouse, or other animal hepatocytes to predict intrinsic clearance. Cryopreserved hepatocytes were removed from the liquid nitrogen tank and thawed in a 37° C. water bath. As soon as the cells pulled away from the vial wall, they were decanted into 48 ml of warm HT medium. Cells were centrifuged for four minutes at 420 rpm (50 g). After removing the supernatant, pellet was re-suspended in warm DMEM medium. Cell density was counted by a hemacytometer.
The assay was carried out in 96-well microtiter plates. Compounds were incubated for 0, 60, 120, and 180 minutes at 37° C. with hepatocytes. Reaction mixtures (50 μL) contained a final concentration of 1 μM test compound, 0.5 million cells/mL hepatocytes in the DMEM medium. At each of the time points (for example, 0, 1, 2, and 3 hours), 200 μL of quench solution (100% acetonitrile with 0.1% formic acid) with internal standard was transferred to each well. Midazolam was included as a positive control to verify assay performance. Plates were sealed and centrifuged at 4° C. for 15 minutes at 4000 rpm. The supernatant is transferred to fresh plates for LC/MS/MS analysis.
Summarized conditions (customizable): [Compound]=[…], Positive control: midazolam and/or naloxone, [Hepatocyte]=0.5 million cells/Ml, time=0, 60, 120, and 180 min, t=37° C.
as §5
The extent of metabolism was calculated as the disappearance of the test compound, compared to the 0-min control reaction incubations. Initial rates were calculated for the compound concentration and used to determine t½ values and subsequently, the intrinsic clearance, Clint. Clint=(0.693)(1/t½(min))(mL incubation/million cells)

Data set [7] is described as follows: In vivo pharmacokinetics in plasma after oral gavage (PO) in male CD-1 mice. As to conditions: 5 mg/kg PO, Table 4. As to the method: The purpose of this study is to determine the pharmacokinetics of the tested compounds in plasma, following oral gavage administration (PO) to male CD-1 mice.
Animal Husbandry: Animals were group housed during acclimation and the study. The animal room environment were controlled (target conditions: temperature 18 to 26° C., relative humidity 30 to 70%, 12 hours artificial light and 12 hours dark). Temperature and relative humidity were monitored daily. Animals were fasted at least 12 hours prior to the administration. All animals had access to Certified Rodent Diet ad libitum 4 hours post dosing.
Dose Formulation: prepared 85-100 uL of a stock solution of representative compounds of the disclosure in DMSO at 50 mM; 1.5% v/v of Tween 80 were added and mixed gently; 95.5% v/v saline was added gently to the organic phase. The solution was mixed slowly by reverse pipetting to get a clear solution.
Dose Administration: the dose formulations were administered via oral gavage per facility SOPs. The dose volume were determined by the animals' body weight collected on the morning of dosing day
Sample Collection: blood collection (about 0.05 mL per time point) was performed from saphenous vein of each animal into polypropylene tubes at each timepoints (0, 0.25, 0.5, 1, 2, 4, 8, 12, and 24 hr). All blood samples were transferred into pre-chilled tubes containing 2 μL of K2-EDTA (0.5M) and placed on wet ice until centrifugation. Each collected blood sample was in the wet-ice before centrifugation. Each collected blood was under centrifugation for 15 minutes at 4° C. and 3000 g for plasma collection. Plasma samples were stored in polypropylene tubes, quickly frozen over dry ice and kept at −70±10° C. until LC/MS/MS analysis.
Bioanalytical analysis: A LC-MS/MS method for the quantitative determination of tested compound in biological matrix were developed under non-GLP compliance. A calibration curve with at least 7 non-zero calibration standards were applied for the method including LLOQ.
Plasma concentration versus time data were analyzed by non-compartmental approaches using the Phoenix WinNonlin 6.3 software program. Cl, Vdss, C0, Cmax, Tmax, T^1/2, AUC(0-t), AUC(0-inf), MRT(0-t), MRT(0-inf), % F (oral availability) and graphs of plasma concentration versus time profile were reported.

In another data set the test system is LNCaP tumors. In words: LNCaP xenografts model in castrated male NCG mice. The class given is in vivo. As to conditions: Table 4; extrapolated Cmin in efficacy. As to the method: Tumor growth was measured in male NCG mice bearing LNCaP tumors. Castration was performed when tumors reached ˜100 mm^3 and dosing (60 mg/kg PO qd) started 1 week after castration. […] Individual tumor volume change from baseline measured at the end of the experiment.

On to `CNC(=O)c1ccc(N2C(=S)N(c3ccc(C#N)c(C(F)(F)F)c3)C(=O)C2(C)C)cc1F` [Enzalutamide, enzalutamide, reference compound], for which the half-life at 1 μM in data set [1] was greater than 120 min; in data set [2] it was greater than 120 min; in data set [3] it was greater than 120 min; in data set [4] it was greater than 120 min; in data set [5], greater than 120 min; in data set [6], greater than 360 min. The “Cmin at 5 mg/kg PO” value is 3.80 µM in data set [7] and 22.8 µM in the data set with LNCaP tumors.
